According to ChEMBL document CHEMBL3763034, “Exploring the importance of zinc binding and steric/hydrophobic factors in novel HCV replication inhibitors” (Bioorg Med Chem Lett, 2016):

Experiments:
[1] = Selectivity index, ratio of CC50 for human Huh5-2 cells to EC50 for hepatitis C virus genotype 1b I389luc-ubi-neo/NS3-3/5.1 replicon infected in human Huh5-2 cells; format: toxicity, cell-based, Huh-5-2; details: read-out: Ratio CC50/EC50
Hepatitis C virus [2] = experiment: Antiviral activity against HCV1b replicon (I389luc-ubi-neo/NS3-3/5.1) infected in Huh5-2 cells assessed as inhibition of viral RNA replication by luciferase reporter gene assay; format: functional, organism-based, Hepacivirus hominis; details: genotype 1b, Huh-5-2
[3] = Cytotoxicity against human Huh5-2 cells assessed as reduction in cell metabolic activity after 72 hrs by MTS assay; format: ADME, cell-based, Huh-5-2
[4] = Binding affinity to zinc by UV-VIS spectroscopic analysis
[5] = Selectivity index, ratio of CC50 for human Huh-9-13 cells to EC50 for hepatitis C virus genotype 1b I389luc-ubi-neo/NS3-3/5.1 replicon infected in human Huh-9-13 cells; format: toxicity, cell-based; details: read-out: Ratio CC50/EC50
Hepatitis C virus [6] = experiment: Antiviral activity against HCV 1b replicon (I389luc-ubi-neo/NS3-3/5.1) infected in Huh-9-13 cells assessed as inhibition of viral RNA replication by RT-PCR method; format: functional, organism-based, Hepacivirus hominis; details: genotype 1b
[7] = Cytotoxicity against human Huh-9-13 cells assessed as reduction in cell metabolic activity after 72 hrs by MTS assay; format: ADME, cell-based

EC50 (Hepatitis C virus [2]) | Kd [4] | EC50 (Hepatitis C virus [6]) | Structure (SMILES) | selectivity ratio [1] | CC50 at 72 h [3] | selectivity ratio [5] | CC50 at 72 h [7]
109 µM | – | – | CN(C)C(=O)c1cccc2oc(-c3ccccc3O)nc12 | > 1.6 | > 177 µM | – | –
2.5 µM | 0.23 µM | – | COC(=O)c1cccc2oc(-c3ccccc3S)nc12 | 1.6 | 4.1 µM | – | –
28 µM | – | – | COC(=O)c1cccc2oc(-c3c(O)ccc4ccccc34)nc12 | > 1.8 | > 50 µM | – | –
10 µM | – | – | O=C(NCc1ccccc1)c1cccc2oc(-c3ccccc3O)nc12 | > 5 | > 50 µM | – | –
40 µM | 65 µM | – | COC(=O)c1cccc2oc(-c3ccccc3O)nc12 | 1.8 | 71 µM | – | –
106 µM | 190 µM | – | COC(=O)c1cccc2[nH]c(-c3ccccc3O)nc12 | 1.3 | 132 µM | – | –
2.6 µM | – | 0.6 µM | O=C(O)c1cccc2c1nc(-c1ccccc1O)n2Cc1ccccc1 | > 55 | > 145 µM | > 167 | > 100 µM
7.5 µM | – | 0.9 µM | COC(=O)c1cccc2c1nc(-c1ccccc1O)n2Cc1ccccc1 | > 19 | > 140 µM | 106 | 95 µM
7.2 µM | – | – | CCCCNC(=O)c1cccc2oc(-c3ccccc3O)nc12 | 5.4 | 39 µM | – | –
4.9 µM | 0.5 µM | – | O=C(O)c1cccc2oc(-c3ccccc3O)nc12 | 5.1 | 25 µM | – | –
47 µM | – | – | NC(=O)c1cccc2oc(-c3ccccc3O)nc12 | > 4.2 | > 197 µM | – | –
117 µM | 53 µM | – | CNC(=O)c1cccc2oc(-c3ccccc3O)nc12 | > 1.6 | > 186 µM | – | –
8.4 µM | – | 21 µM | CNC(=O)c1cccc2c1nc(-c1ccccc1O)n2Cc1ccccc1 | 12 | 101 µM | 1.8 | 38 µM
52 µM | – | – | COC(=O)c1cccc2oc(-c3ccc4ccccc4c3O)nc12 | 1.2 | 64 µM | – | –
31 µM | – | – | COC(=O)c1cccc2oc(-c3cc4ccccc4cc3O)nc12 | > 1.6 | > 50 µM | – | –
> 50 µM | – | – | COC(=O)c1cccc2oc(-c3cccc4cccnc34)nc12 | – | > 50 µM | – | –
24 µM | – | 23 µM | O=C(O)c1cccc2[nH]c(-c3ccccc3O)nc12 | > 8.2 | > 197 µM | > 4.3 | > 100 µM
16 µM | – | 3.1 µM | CNC(=O)c1cccc2[nH]c(-c3ccccc3O)nc12 | > 12 | > 187 µM | 15 | 47 µM
